Measured values reported in patent US10532988B2, “Crystalline forms of neurotrophin mimetic compounds and their salts” (PharmatrophiX, Inc., priority 2009, dated 2020).
Structures can show the parent of a compound that is named as a salt. Where two headings read alike, the source gives them in different places.

Key:
[1] = Hygroscopicity - dynamic vapor sorption (DVS); format: physicochemical; details: for mass greater than the original value at 0% RH after desorption: DVS desorption phase, end at 0% RH; for RH up to which the sample did not adsorb much moisture (rapid sorption above): DVS sorption phase from 0% RH; for moisture sorption at 95% RH / moisture sorption at 90% RH: 25° C.
Procedure: Hygroscopicity—Dynamic Vapor Sorption (DVS):
Samples were analyzed using an automated dynamic vapor sorption analyzer. The sample (about 1-10 mg) was dried in the instrument 0% RH for 6 hours.

[2] = Solubility in water (incremental solvent addition, visual observation); details: for solubility: thermodynamic from solid
Procedure: Milligram size quantities of each sample were placed into a vial. Water was added and the vials were stirred for a few minutes, followed by visual observation for remaining solids. The solvent was incrementally added until the solids were dissolved, or a maximum volume of solvent was added and the experiment was terminated.

[3] = Pharmacokinetic study of salt forms in rat plasma and brain after oral gavage; format: in vivo; details: for AUC%Extrap / AUCINF / AUCall / Cmax / T1/2 / Tmax / Brain:Plasma Ratio / Maximum Brain Level / Kp at 8 h / AUC / AUC(0-inf) / half-life: male rats, single 25 mg/kg free base by oral gavage; for Brain:Plasma Ratio / Maximum Brain Level / Kp at 8 h: brain at 1, 3 and 8 hours; for Kp at 8 h: brain and plasma, read-out: Brain:Plasma Ratio
Procedure: The objective of this study was to provide preliminary pharmacokinetic information regarding the exposure of different salt forms of LM11A-31 in rat plasma and brain when dosed by oral gavage. Groups consisting of nine male rats received single doses of 25 mg/kg free base by oral gavage. Plasma samples were obtained from three rats per timepoint after administration (0.5, 1, 2, 3, 4, and 8 hours) and brain samples were collected at 1-, 3-, and 8-hour terminations (three rats per time point).
The samples were analyzed by LC-MS/MS to determine the plasma and brain concentrations of the test article. Pharmacokinetic analysis of the plasma concentration data was conducted using noncompartmental analysis with WinNonlin Version 4.1.

[4] = Stability study of salts and free base under stress, HPLC total area normalization; format: physicochemical
Procedure: The scaled up salts and free base were challenged by heat (solids stored at 25 and 60° C. for 1 week), oxidation (solids stored in oxygen headspace at 25° C. for 1 week), light (solids exposed to ≥1×ICH UV confirmatory conditions), and solutions (HPLC diluent) at 25 and 40° C. for 1 week. These samples were analyzed, along with unstressed controls, by HPLC to characterize their stability.
Crystalline forms (i.e., salts and free base) of the present invention were analyzed by total area normalization (TAN). The samples were dissolved in 1:1 Acetonitrile (ACN):Water (H2O) at a concentration of 0.5 mg/mL.
Stressed samples were analyzed using HPLC to determine their impurity profiles.
The stability results shown in Table 10 represent the averages of two injections of duplicate sample preparations.

[5] = Stability study, qualitative proton NMR of stressed samples; format: physicochemical; details: heat stress (solids stored at 60° C.)
Procedure: To confirm the little or no degradation observed in the HPLC stability study, some samples (solids stored at 60° C. and oxidation) of four of the salts and free base were further analyzed by proton NMR (i.e., HNMR). The analysis was qualitative.

[6] = Oxidation Ambient (oxygen headspace, 25° C., 1 week)
[7] = Photo Stability - Exposed (UV, ICH confirmatory conditions)
[8] = Solution (water and acetonitrile 1:1) - 40 C., 1 week
[9] = Solution (water and acetonitrile 1:1) - Ambient, 1 week

| Compound | mass greater than the original value at 0% RH after desorption [1] | RH up to which the sample did not adsorb much moisture (rapid sorption above) [1] | moisture sorption at 95% RH ([1]; DVS sorption phase) [wt %] | AUC%Extrap ([3]; plasma) [%] | AUCINF ([3]; plasma) [ng·h/mL] | AUCall ([3]; plasma) [ng·h/mL] | Cmax ([3]; plasma) [ng/mL] | T1/2 ([3]; plasma) [min] | Tmax ([3]; plasma) [min] | Maximum Brain Level [3] [ng/g tissue] | HPLC Total Area Normalization - Area % Purity [4, 6] [Area %] | HPLC Total Area Normalization - Area % Purity ([4]; Photo Stability - Dark Control) [Area %] | HPLC Total Area Normalization - Area % Purity [4, 7] [Area %] | HPLC Total Area Normalization - Area % Purity ([4]; Solid State - 60 C., 1 week) [Area %] | HPLC Total Area Normalization - Area % Purity ([4]; Solid State - Ambient, 1 week) [Area %] | HPLC Total Area Normalization - Area % Purity [4, 8] [Area %] | HPLC Total Area Normalization - Area % Purity [4, 9] [Area %] | solubility [2] [mg/mL] | overall hygroscopicity (in words) ([1]; DVS) | other results |
| --- | --- | --- | --- | --- | --- | --- | --- | --- | --- | --- | --- | --- | --- | --- | --- | --- | --- | --- | --- | --- |
| 2-amino-3-methyl-N-(2-morpholinoethyl)-pentanamide Digluconate | about 4 wt % | 45 % RH | 110 | – | – | – | – | – | – | – | – | – | – | – | – | – | – | – | – | – |
| 2-amino-3-methyl-N-(2-morpholinoethyl)-pentanamide Disulfate | about 4 wt % | 60 % RH | 140 | 5.26 | 410 | 416 | 413 | 66 | 30 | 77 | 99.97 | 99.97 | 99.94 | 99.98 | 99.98 | 99.75 | 99.90 | – | – | solubility in water ([2]; ambient temperature): > 3; Brain:Plasma Ratio [3]: 0.6-1.8; overall PK properties compared with the free base ([3]; rat, oral gavage): better PK properties than the free base; exposure (AUC and Cmax) compared with the free base ([3]; rat, oral gavage, plasma): higher exposure |
| 2-amino-3-methyl-N-(2-morpholinoethyl)-pentanamide Monoedisylate | – | 80 % RH | – | 1.52 | 243 | 247 | 284 | 42.5 | 30 | 98 | 99.95 | 99.97 | 99.86 | 99.95 | 99.79 | 99.90 | 999.81 | – | – | crude solubility in water [2]: ≤ 14 mg/mL; moisture sorption at 90% RH ([1]; DVS sorption phase): 85 wt %; Brain:Plasma Ratio [3]: 1.4-3.3 |
| CC[C@H](C)[C@H](N)C(=O)NCCN1CCOCC1 (stereo in doubt) [Free base, 2-amino-3-methyl-N-(2-morpholinoethyl)-pentanamide] | original weight | 45 % RH | 96 | 4.81 | – | – | – | – | – | 105 | 99.97 | 99.97 | 99.98 | – | 100 | 99.89 | – | > 30 | – | moisture adsorbed from 45% to 50% RH ([1]; DVS sorption phase, 45% to 50% RH): ~10 wt %; Kp at 8 h ([3]; rat): 2 to 3.5; AUC ([3]; rat, plasma): 321 ng·h/mL; AUC(0-inf) ([3]; rat, plasma): 316 ng·h/mL; half-life ([3]; rat, plasma): 63 min; Cmax ([3]; rat, plasma, read-out: Cmax): 371 ng/mL; Tmax ([3]; rat, plasma, read-out: Tmax): 30 min; degradation after heat stress by proton NMR [5]: slight degradation |
| CCC(C)C(N)C(=O)NCCN1CCOCC1.CS(=O)(=O)O.CS(=O)(=O)O (centres unmarked) [Dimesylate, 2-amino-3-methyl-N-(2-morpholinoethyl)-pentanamide Dimesylate] | about 3 wt % | 55 % RH | 110 | – | – | – | – | – | – | – | – | – | – | – | – | – | – | ≥ 28 | – | – |
| CCC(C)C(N)C(=O)NCCN1CCOCC1.O=S(=O)(O)c1ccc2ccccc2c1.O=S(=O)(O)c1ccc2ccccc2c1 (centres unmarked) [Dinapsylate, 2-amino-3-methyl-N-(2-morpholinoethyl)-pentanamide Dinapsylate] | – | about 80 % RH | – | 3.44 | 280 | 270 | 335 | 114 | 30 | 123 | 99.81 | 99.85 | 99.82 | 99.87 | 99.90 | 99.96 | 99.87 | – | did not appear deliquescent | water taken up at high humidity ([1]; DVS, high humidity, no equilibrium at the highest humidity): 3 to 4 wt %; overall PK properties compared with the free base ([3]; rat, oral gavage): better PK properties than the free base; terminal plasma half-life compared with the free base ([3]; rat, oral gavage, plasma): longer terminal plasma half-life |
| CCC(C)C(N)C(=O)NCCN1CCOCC1.Cc1ccc(S(=O)(=O)O)cc1.Cc1ccc(S(=O)(=O)O)cc1 (centres unmarked) [Ditosylate, 2-amino-3-methyl-N-(2-morpholinoethyl)-pentanamide Ditosylate] | – | 80 % RH | – | 1.45 | – | – | – | – | – | 120 | 99.92 | 99.94 | 99.93 | 99.94 | 99.82 | 99.91 | 99.89 | 0.5 to 0.7 | – | moisture sorption at 90% RH ([1]; DVS sorption phase): 30 wt %; Kp at 8 h ([3]; rat): 1 to 5.7; AUC ([3]; rat, plasma): 295 ng·h/mL; AUC(0-inf) ([3]; rat, plasma): 290 ng·h/mL; half-life ([3]; rat, plasma): 37.8 min; Cmax ([3]; rat, plasma, read-out: Cmax): 296 ng/mL; Tmax ([3]; rat, plasma, read-out: Tmax): 30 min |
| CCC(C)C(N)C(=O)NCCN1CCOCC1.O=C(O)C(=O)O (centres unmarked) [Monooxalate, 2-amino-3-methyl-N-(2-morpholinoethyl)-pentanamide Monooxalate] | – | 50 % RH | 1.5 | – | – | – | – | – | – | – | – | – | – | – | – | – | – | – | did not take up much water | – |
| CCC(C)C(N)C(=O)NCCN1CCOCC1 (centres unmarked) [di-HCl salt, 2-amino-3-methyl-N-(2-morpholinoethyl)-pentanamide] | about 5 wt % | 20 % RH | 140 | – | – | – | – | – | – | – | – | – | – | – | – | – | – | > 30 | quite hygroscopic | – |
